Measurements taken from patent US20080009418A1, “Selective Inhibitors” (Alchemia LTD., priority 2004, published 2008).

Tests used:
[1] = molecular target: T1, Human κ-Opioid (KOP) (Homo sapiens, UniProt P41145); assay: Radioligand binding, human κ-opioid (KOP) membranes, filtration, [3H]-Diprenorphine; conditions: compound at 10 μM; [3H]-Diprenorphine, filtration
T1 construct: purchased Perkin Elmer Biosignal
In short: (§1)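 Filtration binding on cloned human receptor membranes (1 Unit/well), [125I]-Substance P for NK1 and [3H]-Diprenorphine for KOP, 1 h at room temperature. Filters PEI-presoaked, washed with cold 50 mM Tris-HCl pH 7.4, counted by scintillation; percent inhibition calculated, reference ligand defining non-specific binding.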

[2] = molecular target: T2, Human δ-opioid (DOP) (Homo sapiens, UniProt P41143); assay: Radioligand binding, human δ-opioid (DOP) membranes, FlashPlate, [3H]-Bremazocine; conditions: compound at 10 μM; [3H]-Bremazocine, FlashPlate
T2 construct: purchased Perkin Elmer Biosignal
T2 sequence (P41143 whole entry): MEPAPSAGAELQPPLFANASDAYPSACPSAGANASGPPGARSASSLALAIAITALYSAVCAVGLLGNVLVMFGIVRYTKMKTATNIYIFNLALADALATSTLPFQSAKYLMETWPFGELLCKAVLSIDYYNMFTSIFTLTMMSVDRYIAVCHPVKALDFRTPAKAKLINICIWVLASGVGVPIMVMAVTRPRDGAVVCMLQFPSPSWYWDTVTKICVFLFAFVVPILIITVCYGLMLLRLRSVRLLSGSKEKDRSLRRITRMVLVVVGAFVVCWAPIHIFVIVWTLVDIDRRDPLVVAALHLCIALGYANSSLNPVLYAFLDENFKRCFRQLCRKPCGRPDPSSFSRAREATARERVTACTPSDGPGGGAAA
In short: (§2)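 Cloned human receptor membranes were coated onto FlashPlate wells and incubated with radioligand and compound (added from a 0.5 mM DMSO daughter plate) for 1 hour at room temperature in the dark. Scintillation counting gave percent inhibition, with DMSO defining total and reference ligand defining non-specific binding.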

[3] = molecular target: T3, Human Melanocortin (MC4) (Homo sapiens, UniProt P32245); assay: Radioligand binding, human melanocortin MC4 membranes, FlashPlate, [125I]-NDP-αMSH; conditions: compound at 10 μM; [125I]-NDP-αMSH, FlashPlate
T3 construct: purchased Perkin Elmer Biosignal
T3 sequence (P32245 whole entry): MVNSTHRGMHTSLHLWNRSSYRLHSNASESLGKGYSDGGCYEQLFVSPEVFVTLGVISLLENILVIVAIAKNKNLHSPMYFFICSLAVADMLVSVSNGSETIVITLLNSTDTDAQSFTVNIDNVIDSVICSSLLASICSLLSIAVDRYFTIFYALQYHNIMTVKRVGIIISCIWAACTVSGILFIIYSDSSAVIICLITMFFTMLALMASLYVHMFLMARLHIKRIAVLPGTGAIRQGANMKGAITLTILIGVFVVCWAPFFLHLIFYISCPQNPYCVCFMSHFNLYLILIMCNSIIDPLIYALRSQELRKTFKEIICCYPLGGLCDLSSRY
In short: as §2

[4] = molecular target: T4, Human melanin-concentrating hormone (MCH1) (Homo sapiens, UniProt Q99705); assay: Radioligand binding, human melanin-concentrating hormone MCH1 membranes, FlashPlate, [125I]-S36057; conditions: compound at 10 μM; [125I]-S36057, FlashPlate
T4 construct: purchased Perkin Elmer Biosignal
T4 sequence (Q99705 whole entry): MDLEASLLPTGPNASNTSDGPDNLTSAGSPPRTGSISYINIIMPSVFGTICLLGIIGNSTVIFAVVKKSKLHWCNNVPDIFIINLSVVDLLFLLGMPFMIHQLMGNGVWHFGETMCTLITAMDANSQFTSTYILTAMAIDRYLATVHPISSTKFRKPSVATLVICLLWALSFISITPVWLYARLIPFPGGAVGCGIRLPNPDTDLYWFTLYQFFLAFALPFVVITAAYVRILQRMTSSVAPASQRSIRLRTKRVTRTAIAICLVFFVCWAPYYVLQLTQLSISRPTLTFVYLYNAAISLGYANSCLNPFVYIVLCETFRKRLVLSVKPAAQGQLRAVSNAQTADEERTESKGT
In short: as §2

[5] = molecular target: T5, Human Melanocortin (MC3) (Homo sapiens, UniProt P41968); assay: Radioligand binding, human melanocortin MC3 membranes, FlashPlate, [125I]-NDP-αMSH; conditions: compound at 10 μM; [125I]-NDP-αMSH, FlashPlate
T5 construct: purchased Perkin Elmer Biosignal
T5 sequence (P41968 whole entry): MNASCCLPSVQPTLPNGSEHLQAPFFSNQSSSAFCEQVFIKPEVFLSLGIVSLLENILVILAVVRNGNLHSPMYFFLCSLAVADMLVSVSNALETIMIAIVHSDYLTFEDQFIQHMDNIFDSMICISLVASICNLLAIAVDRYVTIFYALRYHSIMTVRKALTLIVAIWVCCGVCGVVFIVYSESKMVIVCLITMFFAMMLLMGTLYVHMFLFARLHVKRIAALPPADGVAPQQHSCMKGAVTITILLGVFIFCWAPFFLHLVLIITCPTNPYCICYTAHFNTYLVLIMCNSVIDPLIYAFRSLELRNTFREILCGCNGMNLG
In short: as §2

[6] = molecular target: T6, Mouse urotensin (mUR2) (Mus musculus, UniProt Q8VIH9); assay: Radioligand binding, mouse urotensin mUR2 membranes, FlashPlate, [125I]-Urotensin II; conditions: compound at 10 μM; [125I]-Urotensin II, FlashPlate
T6 construct: purchased Perkin Elmer Biosignal
T6 sequence (Q8VIH9 1-385): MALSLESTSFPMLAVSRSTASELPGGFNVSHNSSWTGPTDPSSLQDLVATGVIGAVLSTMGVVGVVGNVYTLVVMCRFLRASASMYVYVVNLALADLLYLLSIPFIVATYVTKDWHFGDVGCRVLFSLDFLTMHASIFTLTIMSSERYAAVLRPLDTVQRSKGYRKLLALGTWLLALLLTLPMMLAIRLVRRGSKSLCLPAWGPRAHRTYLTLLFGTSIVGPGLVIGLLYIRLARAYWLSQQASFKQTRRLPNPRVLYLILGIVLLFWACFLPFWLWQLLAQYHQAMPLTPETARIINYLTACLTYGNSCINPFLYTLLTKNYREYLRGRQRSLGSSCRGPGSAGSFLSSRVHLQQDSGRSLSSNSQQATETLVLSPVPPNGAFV
In short: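 Cloned mouse urotensin (mUR2) receptor membranes from Perkin Elmer Biosignal were immobilized in FlashPlate microplates using a proprietary coating. Each well got 19.5 μl buffer, then 0.5 μl of DMSO, reference ligand, or compound. Adding 5 μl of [125I]-Urotensin II, diluted to 5× final concentration in binding buffer, started binding. Plates were sealed with TopSeal-A and incubated 1 hour at room temperature in the dark. Wells were counted for 30 seconds each on a TopCount after a 60-second delay, and percentage inhibition was calculated.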

[7] = molecular target: T7, Human μ-opioid (MOP) (Homo sapiens, UniProt P35372); assay: Radioligand binding, human μ-opioid (MOP) membranes, FlashPlate, [3H]-Naloxone; conditions: compound at 10 μM; [3H]-Naloxone, FlashPlate
T7 construct: purchased Perkin Elmer Biosignal
T7 sequence (P35372 whole entry): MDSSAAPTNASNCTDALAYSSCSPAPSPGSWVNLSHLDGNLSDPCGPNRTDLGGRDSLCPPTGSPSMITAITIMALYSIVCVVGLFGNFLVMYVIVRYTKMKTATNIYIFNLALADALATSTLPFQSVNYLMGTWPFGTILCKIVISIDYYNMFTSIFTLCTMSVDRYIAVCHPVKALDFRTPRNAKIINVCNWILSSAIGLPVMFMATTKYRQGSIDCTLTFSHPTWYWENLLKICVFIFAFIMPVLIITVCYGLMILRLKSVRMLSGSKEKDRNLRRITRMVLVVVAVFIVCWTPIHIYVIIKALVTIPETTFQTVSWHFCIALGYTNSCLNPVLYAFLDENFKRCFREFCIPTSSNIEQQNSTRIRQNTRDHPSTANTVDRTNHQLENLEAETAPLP
In short: as §2

[8] = molecular target: T8, Human opioid (ORL1) (Homo sapiens, UniProt P41146); assay: Radioligand binding, human opioid ORL1 membranes, FlashPlate, [125I]-Nociceptin; conditions: compound at 10 μM; [125I]-Nociceptin, FlashPlate
T8 construct: purchased Perkin Elmer Biosignal
T8 sequence (P41146 whole entry): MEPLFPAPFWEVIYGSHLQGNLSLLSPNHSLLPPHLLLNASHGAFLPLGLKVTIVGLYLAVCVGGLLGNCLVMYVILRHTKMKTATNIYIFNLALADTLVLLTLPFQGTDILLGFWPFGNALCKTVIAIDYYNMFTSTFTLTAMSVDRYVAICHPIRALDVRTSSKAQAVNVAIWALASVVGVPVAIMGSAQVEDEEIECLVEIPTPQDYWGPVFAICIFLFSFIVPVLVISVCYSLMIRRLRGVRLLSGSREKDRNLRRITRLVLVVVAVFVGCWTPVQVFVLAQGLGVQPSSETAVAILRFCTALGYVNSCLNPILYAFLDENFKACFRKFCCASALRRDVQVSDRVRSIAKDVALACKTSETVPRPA
In short: as §2

[9] = molecular target: T9, Human neurokinin (NK1) (Homo sapiens, UniProt P25103); assay: Radioligand binding, human neurokinin NK1 membranes, filtration, [125I]-Substance P; conditions: compound at 10 μM; [125I]-Substance P, filtration
T9 construct: purchased Perkin Elmer Biosignal
T9 sequence (P25103 whole entry): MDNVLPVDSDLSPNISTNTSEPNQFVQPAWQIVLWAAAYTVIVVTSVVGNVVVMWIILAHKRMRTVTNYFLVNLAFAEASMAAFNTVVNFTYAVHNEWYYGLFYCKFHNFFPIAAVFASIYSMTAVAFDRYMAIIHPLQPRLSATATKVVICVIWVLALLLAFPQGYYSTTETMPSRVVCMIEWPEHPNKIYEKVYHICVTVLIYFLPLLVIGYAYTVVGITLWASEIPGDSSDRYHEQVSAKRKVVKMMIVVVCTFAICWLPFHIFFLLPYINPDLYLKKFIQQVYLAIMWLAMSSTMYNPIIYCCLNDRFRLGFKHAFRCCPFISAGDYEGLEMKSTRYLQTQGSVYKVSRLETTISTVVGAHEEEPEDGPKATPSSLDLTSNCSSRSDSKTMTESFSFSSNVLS
In short: as §1

[10] = molecular target: T10, Human melanocortin (MC5) (Homo sapiens, UniProt P33032); assay: Radioligand binding, human melanocortin MC5 membranes, FlashPlate, [125I]-NDP-αMSH; conditions: compound at 10 μM; [125I]-NDP-αMSH, FlashPlate
T10 construct: purchased Perkin Elmer Biosignal
T10 sequence (P33032 whole entry): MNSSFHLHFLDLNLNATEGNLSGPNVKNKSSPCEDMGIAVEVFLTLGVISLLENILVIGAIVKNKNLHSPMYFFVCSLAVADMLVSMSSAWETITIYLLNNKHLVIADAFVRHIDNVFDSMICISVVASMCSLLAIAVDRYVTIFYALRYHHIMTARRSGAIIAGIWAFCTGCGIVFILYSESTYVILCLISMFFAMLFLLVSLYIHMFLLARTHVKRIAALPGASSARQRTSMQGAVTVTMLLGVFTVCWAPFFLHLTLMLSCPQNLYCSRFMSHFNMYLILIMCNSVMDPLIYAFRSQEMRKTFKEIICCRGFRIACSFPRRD
In short: as §2

[11] = molecular target: T11, Human neuropeptide Y (NPY-Y1) (Homo sapiens, UniProt P25929); assay: Radioligand binding, human neuropeptide Y NPY-Y1 membranes, FlashPlate, [125I]-PYY; conditions: compound at 10 μM; [125I]-PYY, FlashPlate
T11 construct: purchased Perkin Elmer Biosignal
T11 sequence (P25929 1-384): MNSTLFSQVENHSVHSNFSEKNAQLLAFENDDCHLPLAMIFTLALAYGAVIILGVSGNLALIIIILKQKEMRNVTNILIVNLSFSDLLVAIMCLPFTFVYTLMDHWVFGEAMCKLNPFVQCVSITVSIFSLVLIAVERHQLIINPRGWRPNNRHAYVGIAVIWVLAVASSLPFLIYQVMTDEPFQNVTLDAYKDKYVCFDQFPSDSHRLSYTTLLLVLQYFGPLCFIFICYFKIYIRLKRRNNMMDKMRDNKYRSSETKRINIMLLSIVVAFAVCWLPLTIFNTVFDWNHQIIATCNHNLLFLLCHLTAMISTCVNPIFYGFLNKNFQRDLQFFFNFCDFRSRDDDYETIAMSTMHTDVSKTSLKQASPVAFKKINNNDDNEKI
In short: as §2

T1 sequence (P41145 whole entry): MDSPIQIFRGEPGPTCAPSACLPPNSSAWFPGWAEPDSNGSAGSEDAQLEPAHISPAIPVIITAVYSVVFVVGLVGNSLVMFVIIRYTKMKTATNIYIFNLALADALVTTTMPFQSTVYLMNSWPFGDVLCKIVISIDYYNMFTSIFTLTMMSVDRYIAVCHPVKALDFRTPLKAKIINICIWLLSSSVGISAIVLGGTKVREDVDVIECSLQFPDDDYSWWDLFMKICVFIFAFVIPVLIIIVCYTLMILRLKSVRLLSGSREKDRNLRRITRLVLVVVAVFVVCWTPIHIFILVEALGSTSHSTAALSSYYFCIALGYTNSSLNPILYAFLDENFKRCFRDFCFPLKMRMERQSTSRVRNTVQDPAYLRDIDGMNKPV

Row | Compound | A2: inhibition of radioligand binding [1] | A1: inhibition of radioligand binding [2] | A4: inhibition of radioligand binding [3] | A6: inhibition of radioligand binding [4] | A3: inhibition of radioligand binding [5] | A11: inhibition of radioligand binding [6] | A7: inhibition of radioligand binding [7] | A10: inhibition of radioligand binding [8] | A8: inhibition of radioligand binding [9] | A5: inhibition of radioligand binding [10] | A9: inhibition of radioligand binding [11]
1 | COCC1OC(OCc2ccc3ccccc3c2)C(NC(=O)CCNC(=N)N)C(OCc2ccc(-c3ccccc3)cc2)C1O (stereo not drawn) [compound 244] | − (“−” indicates less than 50% inhibition at 10 μM) | − (“−” indicates less than 50% inhibition at 10 μM) | + (“+” indicates greater than 50% inhibition at 10 μM) | + (“+” indicates greater than 50% inhibition at 10 μM) | + (“+” indicates greater than 50% inhibition at 10 μM) | − (“−” indicates less than 50% inhibition at 10 μM) | − (“−” indicates less than 50% inhibition at 10 μM) | − (“−” indicates less than 50% inhibition at 10 μM) | + (“+” indicates greater than 50% inhibition at 10 μM) | + (“+” indicates greater than 50% inhibition at 10 μM) | + (“+” indicates greater than 50% inhibition at 10 μM)
2 | COCC1OC(OCc2ccc3ccccc3c2)C(NC(=O)CCCN)C(OCc2ccc(-c3ccccc3)cc2)C1O (stereo not drawn) [compound 245] | − (“−” indicates less than 50% inhibition at 10 μM) | − (“−” indicates less than 50% inhibition at 10 μM) | − (“−” indicates less than 50% inhibition at 10 μM) | − (“−” indicates less than 50% inhibition at 10 μM) | − (“−” indicates less than 50% inhibition at 10 μM) | − (“−” indicates less than 50% inhibition at 10 μM) | − (“−” indicates less than 50% inhibition at 10 μM) | − (“−” indicates less than 50% inhibition at 10 μM) | + (“+” indicates greater than 50% inhibition at 10 μM) | − (“−” indicates less than 50% inhibition at 10 μM) | − (“−” indicates less than 50% inhibition at 10 μM)
3 | COCC1OC(OCc2ccc3ccccc3c2)C(NC(=O)CN)C(OCc2ccc3ccccc3c2)C1O (stereo not drawn) [compound 246] | − (“−” indicates less than 50% inhibition at 10 μM) | − (“−” indicates less than 50% inhibition at 10 μM) | − (“−” indicates less than 50% inhibition at 10 μM) | − (“−” indicates less than 50% inhibition at 10 μM) | − (“−” indicates less than 50% inhibition at 10 μM) | − (“−” indicates less than 50% inhibition at 10 μM) | − (“−” indicates less than 50% inhibition at 10 μM) | − (“−” indicates less than 50% inhibition at 10 μM) | + (“+” indicates greater than 50% inhibition at 10 μM) | − (“−” indicates less than 50% inhibition at 10 μM) | − (“−” indicates less than 50% inhibition at 10 μM)
4 | COCC1OC(OCc2ccc3ccccc3c2)C(NC(=O)CNC(=N)N)C(OCc2ccc3ccccc3c2)C1O (stereo not drawn) [compound 247] | − (“−” indicates less than 50% inhibition at 10 μM) | − (“−” indicates less than 50% inhibition at 10 μM) | + (“+” indicates greater than 50% inhibition at 10 μM) | − (“−” indicates less than 50% inhibition at 10 μM) | + (“+” indicates greater than 50% inhibition at 10 μM) | − (“−” indicates less than 50% inhibition at 10 μM) | − (“−” indicates less than 50% inhibition at 10 μM) | − (“−” indicates less than 50% inhibition at 10 μM) | + (“+” indicates greater than 50% inhibition at 10 μM) | + (“+” indicates greater than 50% inhibition at 10 μM) | − (“−” indicates less than 50% inhibition at 10 μM)
5 | COCC1OC(OCc2ccc3ccccc3c2)C(NC(=O)CCN)C(OCc2ccc3ccccc3c2)C1O (stereo not drawn) [compound 248] | − (“−” indicates less than 50% inhibition at 10 μM) | − (“−” indicates less than 50% inhibition at 10 μM) | − (“−” indicates less than 50% inhibition at 10 μM) | − (“−” indicates less than 50% inhibition at 10 μM) | − (“−” indicates less than 50% inhibition at 10 μM) | − (“−” indicates less than 50% inhibition at 10 μM) | − (“−” indicates less than 50% inhibition at 10 μM) | − (“−” indicates less than 50% inhibition at 10 μM) | + (“+” indicates greater than 50% inhibition at 10 μM) | + (“+” indicates greater than 50% inhibition at 10 μM) | − (“−” indicates less than 50% inhibition at 10 μM)
6 | COCC1OC(OCc2ccc3ccccc3c2)C(NC(=O)CCNC(=N)N)C(OCc2ccc3ccccc3c2)C1O (stereo not drawn) [compound 249] | − (“−” indicates less than 50% inhibition at 10 μM) | − (“−” indicates less than 50% inhibition at 10 μM) | + (“+” indicates greater than 50% inhibition at 10 μM) | + (“+” indicates greater than 50% inhibition at 10 μM) | + (“+” indicates greater than 50% inhibition at 10 μM) | − (“−” indicates less than 50% inhibition at 10 μM) | + (“+” indicates greater than 50% inhibition at 10 μM) | − (“−” indicates less than 50% inhibition at 10 μM) | + (“+” indicates greater than 50% inhibition at 10 μM) | + (“+” indicates greater than 50% inhibition at 10 μM) | − (“−” indicates less than 50% inhibition at 10 μM)
